Results: PubChem BioAssay (NCI)
Where “and” joins values, the source holds several entries; their conditions need not be identical. Identical values can stand only once.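 These data come from cells grown in 96-well plates and exposed to compound for 48 hours at five concentrations. Abbreviation: GI50, concentration required for 50% inhibition of growth. TGI denotes the concentration required for complete inhibition of growth.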

What was measured:
Assay in all cases: NCI tumour cell line growth inhibition, 48 h
OVCAR-8 ovarian = test system: OVCAR-8 ovarian
HCT-116 colon = test system: HCT-116 colon
SK-MEL-5 melanoma = test system: SK-MEL-5 melanoma
CCRF-CEM leukemia = test system: CCRF-CEM leukemia
LOX IMVI melanoma = test system: LOX IMVI melanoma
M14 melanoma = test system: M14 melanoma
CAKI-1 renal = test system: CAKI-1 renal
786-0 renal = test system: 786-0 renal
SF-539 CNS = test system: SF-539 CNS

Row | Compound | GI50 (OVCAR-8 ovarian) | TGI (OVCAR-8 ovarian) | GI50 (HCT-116 colon) | TGI (HCT-116 colon) | GI50 (SK-MEL-5 melanoma) | TGI (SK-MEL-5 melanoma) | GI50 (CCRF-CEM leukemia) | TGI (CCRF-CEM leukemia) | GI50 (LOX IMVI melanoma) | TGI (LOX IMVI melanoma) | GI50 (M14 melanoma) | TGI (M14 melanoma) | GI50 (CAKI-1 renal) | TGI (CAKI-1 renal) | GI50 (786-0 renal) | TGI (786-0 renal) | GI50 (SF-539 CNS) | TGI (SF-539 CNS)
1 | Cn1cc(-c2ccc(-c3ccc(C4=NC5(CC5)C(=O)N4C[C@@H]4CCN(C(=O)C5CC5)C4)cc3)cc2)cn1 | 19.4 µM | > 100 µM | 11.7 µM | > 100 µM | 2.46 µM | 15.2 µM | 6.01 µM | 42.5 µM | 1.47 µM | 18 µM | 20.2 µM | > 100 µM | 12.6 µM | > 100 µM | 10.5 µM | > 100 µM | 10.7 µM | 32.1 µM
2 | Cc1cccc(C)c1NC(=O)C(=O)Nn1c(NN)nc2ccccc2c1=O |  | > 100 µM |  | > 100 µM |  | > 100 µM |  | > 100 µM |  | > 100 µM |  | > 100 µM |  | > 100 µM |  | > 100 µM |  | > 100 µM
3 | COc1cccc(NC(=O)/C(Cc2nc3ccccc3nc2C)=N/NC(=O)C[n+]2ccccc2)c1 |  | > 100 µM |  | > 100 µM |  | > 100 µM |  | > 100 µM |  | > 100 µM |  | > 100 µM |  | > 100 µM |  | > 100 µM |  | > 100 µM
4 | CC(C)OP(=O)(NC(=S)c1ccccc1)OC(C)C |  | > 100 µM |  | > 100 µM |  | > 100 µM |  | > 100 µM |  | > 100 µM |  | > 100 µM |  | > 100 µM |  | > 100 µM |  | > 100 µM
5 | CN(C)c1ccc(/C=C/c2cc[n+](C)c(/C=C/c3ccc(N(C)C)cc3)c2)cc1 | 0.294 µM | 1.26 µM | 0.278 µM | 1.24 µM | 0.204 µM | 0.465 µM | 0.248 µM | 3.78 µM | 0.356 µM | 1.45 µM | 0.376 µM | 1.65 µM | 1.42 µM | 7.4 µM | 0.387 µM | 1.7 µM | 0.393 µM | 3.01 µM
6 | Cn1cc2ccccc2c1-c1nc(F)nc(OCC(=O)[C@H]2CCC3[C@@H]4CCC5=CC(=O)CC[C@]5(C)C4[C@@H](O)C[C@@]32C)n1 (some centres not stated) |  | 18.5 µM |  | 27 µM |  | 44.9 µM |  | 27.5 µM |  | 23.3 µM |  | 44.7 µM |  | 14 µM |  | 30.5 µM |  | 35.1 µM
7 | C=C(c1ccccc1)[C@@]1(O)CC[C@@H]1N(CC#N)Cc1ccccc1 |  | 52.3 µM |  | 30.3 µM |  | 31.8 µM |  | 62.5 µM |  | 34.6 µM |  | 32.6 µM |  | 45.7 µM |  | 35.4 µM |  | 63.1 µM
8 | COc1cc2c(cc1OC)C13CCN4CC5CCOC6CC(=O)N2C1C6C5CC43 (configuration not stated) |  | > 100 µM |  | > 100 µM |  | > 100 µM |  | > 100 µM |  | > 100 µM |  | > 100 µM |  | > 100 µM |  | > 100 µM |  | > 100 µM
9 | O=c1cccccc1[O-].O=c1cccccc1[O-].O=c1cccccc1[O-].[La+3] |  | 51.5 µM |  | 31.2 µM |  | 22.4 µM |  | 51.3 µM |  | > 100 µM |  | 53.8 µM |  | > 100 µM |  | 30.4 µM | 5.62 µM | 38 µM
10 | CC(=O)OCC1OC(n2c(-c3ccc(C)cc3)cc(-c3ccccc3)c(C#N)c2=O)C(OC(C)=O)C(OC(C)=O)C1OC(C)=O (configuration not stated) |  | > 100 µM |  | > 100 µM |  | > 100 µM |  | > 100 µM |  | > 100 µM |  | > 100 µM |  | > 100 µM |  | > 100 µM |  | > 100 µM
11 | CN(C)CCNC(=O)c1ccc(NC(=O)c2nc([N+](=O)[O-])cn2C)cc1 |  | > 100 µM |  | > 100 µM |  | > 100 µM |  | > 100 µM |  | > 100 µM |  | > 100 µM |  | > 100 µM |  | > 100 µM |  | > 100 µM
12 | COC(C)(C)C/C=C/C(C)=C/C=C/C(C)=C\C=C\C(C)=C\C=C\C=C(C)\C=C\C=C(C)\C=C\C=C(C)\C=C\CC(C)(C)OC | > 150 µg/mL | > 150 µg/mL | > 150 µg/mL | > 150 µg/mL | > 150 µg/mL | > 150 µg/mL | > 150 µg/mL | > 150 µg/mL | > 150 µg/mL | > 150 µg/mL | > 150 µg/mL | > 150 µg/mL | > 150 µg/mL | > 150 µg/mL | > 150 µg/mL | > 150 µg/mL | > 150 µg/mL | > 150 µg/mL
13 | C=CCC1C(=O)CC2(C)CC(=O)C(CC=C)C12C (configuration not stated) |  | > 100 µM |  | > 100 µM |  | > 100 µM |  | > 100 µM |  | > 100 µM |  | > 100 µM |  | > 100 µM |  | > 100 µM |  | > 100 µM
14 | COc1ccc(-c2ccc(-c3ccc(C(=N)N)o3)o2)cc1 | 3.19 µM | 11.4 µM | 1.07 µM | 3.01 µM | 2.8 µM | 12.1 µM | 1.84 µM | 6.75 µM | 1.46 µM | 2.96 µM | 1.47 µM | 3.87 µM | 1.75 µM | 4.29 µM | 2.22 µM | 5.64 µM | 1.88 µM | 3.63 µM
15 | NCCCNCCCCNC(=O)C(O)NC(=O)CCCCCCN=C(N)N (configuration not stated) | 2440 µM | 750 µM and > 5000 µM | 1830 µM | 750 µM and > 4790 µM | 1730 µM | > 750 µM and 2820 µM | 1320 µM | 750 µM and > 3570 µM | 828 µM | 750 µM and 1570 µM | 2450 µM | > 3810 µM | 540 µM and > 3340 µM | 710 µM and > 5000 µM | > 750 µM | > 5000 µM | > 4070 µM | > 5000 µM
16 | COc1cc(-c2nc(SCCC(C)C)nc(Nc3ccc(S(N)(=O)=O)cc3)c2C#N)cc(OC)c1OC | 4 µM | > 100 µM | 2.01 µM | 4.85 µM | 1.59 µM | 3.01 µM | 2.88 µM | > 100 µM | 1.91 µM | 4.41 µM | 2.9 µM | 24.7 µM | 4 µM | > 100 µM | 2.16 µM | 4.87 µM | 2.01 µM | 5.22 µM
17 | CCNC(=O)O[C@H]1CN[C@H](C#Cc2cc3ncnc(Nc4ccc(OCc5cccc(F)c5)c(Cl)c4)c3s2)C1 | 6.25 µM | > 25 µM | 7.43 µM | > 25 µM | 10.2 µM | > 25 µM | 2.91 µM | > 25 µM | 8.12 µM | > 25 µM | > 22.6 µM | > 25 µM | 0.88 µM | > 25 µM | 5.69 µM | > 16.6 µM | 5.77 µM | > 18.4 µM
